For assay [1], the target named is T1, Thymidine kinase 2 (Rattus norvegicus) (UniProt D3ZGQ2).
T1 sequence (whole entry): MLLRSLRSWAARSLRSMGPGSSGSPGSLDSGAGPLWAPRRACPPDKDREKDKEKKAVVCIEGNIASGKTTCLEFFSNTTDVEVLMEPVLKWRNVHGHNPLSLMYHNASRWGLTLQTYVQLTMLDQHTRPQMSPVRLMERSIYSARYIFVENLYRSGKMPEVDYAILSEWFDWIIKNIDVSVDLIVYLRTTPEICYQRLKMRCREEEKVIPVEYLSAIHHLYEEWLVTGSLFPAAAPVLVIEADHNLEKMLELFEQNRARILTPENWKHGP
The assay can be described thus: Ability to inhibit rat mitochondrial thymidine kinase. Set-up: concentration or dose not given beside the values. Conditions: concentration not given here.

Assay [2] has as its target T2, Thymidine kinase, cytosolic (Rattus norvegicus) (UniProt P27158).
T2 sequence (whole entry): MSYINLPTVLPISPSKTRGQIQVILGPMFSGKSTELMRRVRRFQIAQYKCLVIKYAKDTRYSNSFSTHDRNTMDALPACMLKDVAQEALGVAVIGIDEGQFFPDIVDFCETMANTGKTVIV
Nature of the assay: (§1) Competitive inhibition against rat cytoplasmic thymidine kinase. The arrangement: concentration or dose not given beside the values. As to conditions: concentration not given here.

A further assay deals with T3, Thymidine kinase 2 (Rattus norvegicus, UniProt D3ZGQ2).
T3 sequence (D3ZGQ2 whole entry): T1 sequence (whole entry)
The assay can be described thus: Competitive inhibition against rat mitochondrial thymidine kinase.

In assay [3] the target is T1, Thymidine kinase 2 (Rattus norvegicus). Nature of the assay: Affinity towards mitochondrial thymidine kinase relative to TdR.
In assay [4] the target is T2, Thymidine kinase, cytosolic (Rattus norvegicus). The assay can be described thus: Affinity towards cytoplasmic Thymidine kinase relative ot TdR.
Another assay is filed under the species Rattus norvegicus. The assay can be described thus: Differential affinity is the ratio between M-TK and C-TK.
The target in assay [5] is T4, Thymidine kinase, cytosolic (Rattus norvegicus, UniProt P27158).
T4 sequence (P27158 whole entry): T2 sequence (whole entry)
The assay can be described thus: Competitive inhibition against rat cytoplasmic Thymidine kinase.

Assay [6] deals with T2, Thymidine kinase, cytosolic (Rattus norvegicus). The assay can be described thus: Ability to inhibit rat cytoplasmic Thymidine kinase. The arrangement: concentration or dose not given beside the values. As to conditions: concentration not given here.
The target in assay [7] is T4, Thymidine kinase, cytosolic. The assay can be described thus: Affinity towards cytoplasmic Thymidine kinase relative ot TdR; expressed as KM (TdR)/Ki.
Assay [8] shares this target. The description is as §1.
Assay [9] has as its target T2, Thymidine kinase, cytosolic (Rattus norvegicus). The assay can be described thus: Affinity towards cytoplasmic thymidine kinase relative ot TdR; expressed as KM (TdR)/Ki.

One may read the inhibition as the change of the read-out against control, counted positive when it falls. In the case of `Cn1c(=O)ccn([C@H]2C[C@H](O)[C@@H](CO)O2)c1=O`, the results for the inhibition in [1] and in assay [2] were 4% and 62%, respectively.

What is called Ki is a measure of affinity in units of concentration, obtained from inhibition or displacement. Take `Cc1cn([C@H]2C[C@H](N)[C@@H](CO)O2)c(=O)[nH]c1=O` [3-AMINO- 3-DEOXYTHYMIDINE]: the results for the Ki (at Thymidine kinase 2; in assay [5]) were 2600 µM and 380 µM, respectively. For the same compound, the Relative affinity in [3] was 0.0031; in assay [4], 0.0042. Besides, the Differential affinity in the assay filed under Rattus norvegicus was found to be 0.74.

With `C/C=C/c1cn([C@H]2C[C@H](O)[C@@H](CO)O2)c(=O)[nH]c1=O`, the Ki in assay [5] is 15500 µM.

For `Cc1cn(C2CC(O)C(CSCCC(=O)O)O2)c(=O)[nH]c1=O` (stereo unspecified), the inhibition is 25% in [1] and 40% in assay [6].

Turning to `CCNc1ccn([C@H]2C[C@H](O)[C@@H](CO)O2)c(=O)n1`, the inhibition was 5% in assay [1] and 7% in [6].

Consider `Cc1cn([C@H]2C[C@H](O)[C@@H](CN)O2)c(=O)[nH]c1=O`, for which the Ki was 4600 µM at Thymidine kinase 2 and 2.4 µM in assay [5]. For the same compound, the values for the Relative affinity in assay [3] and in assay [4] were 0.0017 and 0.67, respectively. The Differential affinity in the assay filed under Rattus norvegicus is 0.0025.

For the compound `CO[C@H]1C[C@H](n2ccc(N)nc2=O)O[C@@H]1CO`, the inhibition in [1] turned out to be 24%; in [2] it was 3%.

Regarding `Cc1cn([C@H]2C[C@H](O)[C@@H](CO)O2)c(=O)nc1N`, the Relative affinity in assay [3] came out at 0.006; in assay [4], 0.00076. Further, the Differential affinity in the assay filed under Rattus norvegicus stood at 7.9. The Ki in assay [5] was 2100 µM.

On to `Cc1cn(C2CC(O)C(CSCCCC(=O)O)O2)c(=O)[nH]c1=O` (stereo unspecified), for which the inhibition in assay [1] amounted to 36%; in assay [6] it was 48%. This compound had a Ki in assay [7] of 3600 µM.

With `CCOC1N([C@H]2C[C@H](O)[C@@H](CO)O2)C(=O)NC(=O)C1(C)Br` (stereo in doubt; 4c) [listing 1 of 2 here], the figures for the Relative affinity in assay [3] and in assay [4] were 0.73 and 0.41, respectively. For the same compound, the Differential affinity in the assay filed under Rattus norvegicus was 1.8.

With `CCSCC1OC(n2cc(C)c(=O)[nH]c2=O)CC1O` (stereo unspecified), the inhibition in [1] worked out at 22%; in [6] it was 11%.

Turning to `CCOC1N([C@H]2C[C@H](O)[C@@H](CO)O2)C(=O)NC(=O)C1(C)Br` (stereo in doubt; 4b) [listing 1 of 2 here], the Relative affinity in assay [3] is 0.73; in [4] it was 0.8. Further, in the assay filed under Rattus norvegicus, the Differential affinity was 0.91.

As to `CCCCCCNCC1OC(n2cc(C)c(=O)[nH]c2=O)CC1O` (stereo unspecified), the Ki on Thymidine kinase 2 came out at 960 µM; in assay [5] it was 35 µM. In addition, the Relative affinity in assay [3] was determined as 0.0083; in assay [4] it was 0.046. Moreover, the Differential affinity in the assay filed under Rattus norvegicus is 0.18.

Turning to `CCSC1CC(n2cc(C)c(=O)[nH]c2=O)OC1CO` (stereo unspecified), the Ki on Thymidine kinase 2 came to 62 µM; in assay [5], 24 µM. The Relative affinity in [3] came out at 0.13; in [4], 0.067. Besides, the Differential affinity in the assay filed under Rattus norvegicus amounted to 1.9.

`CC(=O)Nc1cn([C@H]2C[C@H](O)[C@@H](CO)O2)c(=O)[nH]c1=O`: the inhibition in assay [1] came out at 11%; in assay [6] it was 0%.

Regarding `Cc1cn([C@H]2C[C@H](O)[C@@H](CO)O2)c(=O)n(Cc2ccccc2)c1=O`, the Relative affinity is more than 0.002 in assay [3] and 0.05 in [4]. The inhibition in assay [1] was 10%. Further, the Ki in assay [8] worked out at 320 µM. Also, in the assay listed under Rattus norvegicus, the Differential affinity stood at 0.04.

With `Cc1cn([C@H]2C=C[C@@H](CO)O2)c(=O)[nH]c1=O` [STAVUDINE], the affinity at Thymidine kinase 2 corresponds to a Ki of 3250 µM. In addition, the Differential affinity in the assay filed under Rattus norvegicus stood at 2.7.

In the case of `CCCCCn1c(=O)c(C)cn([C@H]2C[C@H](O)[C@@H](CO)O2)c1=O`, the Ki turned out to be 1100 µM on Thymidine kinase 2 and 36 µM in [5]. The results for the Relative affinity in assay [3] and in assay [4] were 0.0073 and 0.044, respectively. Moreover, the Differential affinity in the assay filed under Rattus norvegicus is 0.17.

At Thymidine kinase 2, `CC1CN([C@H]2C[C@H](O)[C@@H](CO)O2)C(=O)NC1=O` (stereo partly specified) returned a Ki of 77 µM. For the same compound, in assay [3], the Relative affinity came out at 0.1. For the same compound, the inhibition turned out to be 83% in assay [1] and 53% in [2].

As for `O=c1ccn([C@H]2C[C@H](O)[C@@H](CO)O2)c(=O)[nH]1`, the values for the inhibition in [1] and in assay [6] were 74% and 90%, respectively.

Regarding `Cc1cn([C@H]2CC[C@@H](CO)O2)c(=O)[nH]c1=O`, the Ki was 880 µM on Thymidine kinase 2 and 400 µM in assay [5]. Also, the Relative affinity in [3] amounted to 0.0091; in assay [4] it was 0.004. Besides, in the assay listed under Rattus norvegicus, the Differential affinity was 2.3.

As to `Cc1cn([C@H]2C[C@H](OCc3ccccc3)[C@@H](CO)O2)c(=O)[nH]c1=O`, the figures for the Ki (at Thymidine kinase 2; in [8]) were 8 µM and 12 µM, respectively. The Relative affinity in assay [3] came to 1; in assay [4], 0.133. Besides, the Differential affinity in the assay filed under Rattus norvegicus stood at 7.5.

The compound `Nc1nc(=O)n([C@H]2C[C@H](O)[C@@H](CO)O2)cc1I` [IBACITABINE] showed a Ki in assay [5] of 11400 µM.

Regarding `CCCCNCC1OC(n2cc(C)c(=O)[nH]c2=O)CC1O` (stereo unspecified), the inhibition in assay [1] amounted to 53%; in assay [6], 95%.

As to `CCC(=O)O[C@H]1C[C@H](n2ccc(N)nc2=O)O[C@@H]1CO`, the values for the inhibition in [1] and in assay [2] were 19% and 8%, respectively.

As for `CC(=O)NC1CC(n2cc(C)c(=O)[nH]c2=O)OC1CO` (stereo unspecified), the Differential affinity in the assay listed under Rattus norvegicus is less than 4.8.

With `Cc1cn(C2CC(O)C(CSCCO)O2)c(=O)[nH]c1=O` (stereo unspecified), the values for the inhibition in assay [1] and in [6] were 22% and 49%, respectively. The compound further returned a Relative affinity in assay [4] of 0.002. The Ki in assay [5] is 820 µM.

Regarding `Nc1ccn([C@H]2C[C@H](O)[C@@H](CO)O2)c(=O)n1` [DOXECITINE], the Ki at Thymidine kinase 2 amounted to 320 µM. In [3], this compound showed a Relative affinity of 0.025. Also, the inhibition is 58% in assay [1] and 7% in assay [6].

In the case of `CCO[C@H]1C[C@H](n2cc(C)c(=O)[nH]c2=O)O[C@@H]1CO`, the Relative affinity worked out at 0.14 in assay [3] and 0.044 in assay [9]. In [8], this compound came in with a Ki of 36 µM. The Differential affinity in the assay filed under Rattus norvegicus worked out at 3.2.

Regarding `CCNCC1OC(n2cc(C)c(=O)[nH]c2=O)CC1O` (stereo unspecified), the Ki worked out at 1440 µM at Thymidine kinase 2 and 40 µM in [5]. Besides, the Relative affinity in assay [3] came out at 0.0056; in assay [4], 0.04. Moreover, the Differential affinity in the assay listed under Rattus norvegicus stood at 0.14.

As to `NCc1cn([C@H]2C[C@H](O)[C@@H](CO)O2)c(=O)[nH]c1=O`, the inhibition in [1] turned out to be 3%; in assay [6], 30%.

For the compound `CCOC1N([C@H]2C[C@H](O)[C@@H](CO)O2)C(=O)NC(=O)C1(C)Br` (stereo in doubt; 4c) [listing 2 of 2 here], the figures for the Ki (on Thymidine kinase 2; in assay [5]) were 11 µM and 3.9 µM, respectively.

As to `O=c1ccn([C@@H]2O[C@H](CO)[C@@H](O)[C@H]2O)c(=O)[nH]1`, the inhibition in [1] and in [6] was 4% in each case.

As to `CC[S+]([O-])CC1OC(n2cc(C)c(=O)[nH]c2=O)CC1O` (stereo unspecified), the inhibition in [1] stood at 7%; in assay [2] it was 4%.

For `CC(=O)NCC1OC(n2cc(C)c(=O)[nH]c2=O)CC1O` (stereo unspecified), the inhibition in assay [1] turned out to be 19%; in assay [6] it was 20%.

As for `Nc1ccn([C@@H]2O[C@H](CO)[C@@H](O)[C@H]2O)c(=O)n1`, the inhibition in assay [1] worked out at 13%; in assay [6], 1%.

`CSc1cn([C@H]2C[C@H](O)[C@@H](CO)O2)c(=O)[nH]c1=O`: the results for the Ki (at Thymidine kinase 2; in assay [5]) were 250 µM and 50 µM, respectively. Besides, the Relative affinity in assay [3] and in assay [4] was 0.032 each time. For the same compound, the Differential affinity in the assay filed under Rattus norvegicus was found to be 1.

Take `Nc1cn([C@H]2C[C@H](O)[C@@H](CO)O2)c(=O)[nH]c1=O`: the inhibitory constant (Ki) at Thymidine kinase 2 is 72 µM; in assay [5] it was 370 µM. The Relative affinity amounted to 0.11 in [3] and 0.0043 in [4]. The Differential affinity in the assay filed under Rattus norvegicus was found to be 26.

In the case of `Cc1cn([C@H]2C[C@H](O)[C@@H](CO)O2)c(=O)n(C)c1=O`, the Differential affinity in the assay filed under Rattus norvegicus was less than 0.022.

As for `CCOC1N([C@H]2C[C@H](O)[C@@H](CO)O2)C(=O)NC(=O)C1(C)Br` (stereo in doubt; 4b) [listing 2 of 2 here], the affinity in assay [5] corresponds to a Ki of 2 µM.
